From patent publication US9149572B2, “Chondroitin sulfate having decreased molecular weight and use thereof” (Seikagaku Corporation, priority 2007, dated 2015)

Tests used:
[1] = system: HL-60 cells differentiated into neutrophil-like cells; assay: ROS scavenging in phorbol ester-stimulated HL-60 cells (L-012 luminescence), Example 6; type: cell-based
Description: An experiment was performed according to the method of Olga T. et al. (Toxicological Science, 76: 376, 2003). To be more specific, HL-60 cells differentiated into neutrophil-like cells were suspended in a culture medium at 2×10^6 cells/mL, and the resulting cell suspension was added to a 96-well plate at 50 μL/well. Then, a test substance was added to the well at 50 μL/well (final concentration: 0.03%, 0.1%, and 0.3% (w/v)). Further, the culture medium was added to the well as a negative control at 50 μL/well. […] As a background, the plate to which the culture medium was added in place of the phorbol ester was incubated in the same manner. After completion of the incubation, a luminescence intensity (CPS) was measured using a multilabel counter, ARVOSX 1420 (manufactured by PerkinElmer) and an ROS scavenging rate was calculated according to the following calculation equation. […] Incidentally, as the test substance, the following substances were used. Further, as a positive control substance, 20 nM staurosporine (a known phorbol ester signal inhibitor) was used.

AGE production = assay: Inhibition of AGE production (glucose and bovine serum albumin, fluorescence), Example 5; type: biochemical; details: positive control substance 1 mM; 37° C., 4 weeks
Description: An experiment was performed according to the method of T. Kiho et al. (Biosci Biotechnol Biochem, 68: 200, 2004). To be more specific, a test substance was dissolved in 0.1 M phosphate buffer (pH 7.4) containing 500 mM glucose and 10 mg/mL bovine serum albumin at a concentration of 0.1% (w/v), and the resulting solution was incubated at 37° C. for 4 weeks. After 4 weeks, a value of fluorescence emitted by AGE was measured at an excitation light wavelength of 355 nm and a measurement wavelength of 460 nm, and the amount of produced AGE was determined, and then, an inhibition rate of AGE production was calculated according to the following calculation equation. Inhibition rate of AGE production(%)=[1−(Fluorescence value when test substance was added)/(Fluorescence value when test substance was not added)]×100 [Equation 1] (Experimental Results)
Incidentally, as the test substance, the following substances were used. Further, as a positive control substance, 1 mM aminoguanidine (a known AGE production inhibitor) was used.

[2] = system: peritoneum (ultrafiltration capacity); assay: Peritoneal equilibration test after repeated peritoneal dialysis fluid administration (water removal rate), Example 3; type: in vivo, Wistar male rat; details: 0.1% (w/v) in Midpeliq 250, into the peritoneal cavity once daily 15 mL/body for 7 days; vs control group; FIG. 1; CSC 10 kDa by method of Example 2
Description: To a Wistar male rat at 8 weeks of age, Midpeliq 250 (trade name, a peritoneal dialysis fluid containing glucose at a concentration of 2.5% (w/v) manufactured by Terumo Corporation) in which a test substance was dissolved at a concentration of 0.1% (w/v) was repetitively administered into the peritoneal cavity once daily at 15 mL/body for 7 days under ether anesthesia. To a control group (Control), Midpeliq 250 was administered in the same manner. On the next day after the final administration, a peritoneal equilibration test was performed, and the peritoneal function was evaluated. To be more specific, Midpeliq 250 was injected into the peritoneal cavity at 60 mL/kg, and 4 hours thereafter, the fluid remaining in the peritoneal cavity was recovered. The amount of the recovered fluid was measured, and the ultrafiltration capacity (water removal rate) of the peritoneum was evaluated.

[3] = Table 4, test substance 0.1% (w/v), CSC 10 kDa by method of Example 1

Row | Compound | ROS scavenging rate [1, 3] [%] | also measured
1 | Chondroitin sulfate A, sodium salt (whale cartilage), SG [CSA 30 kDa] | 33.4 | 
2 | Chondroitin sulfate E, sodium salt (squid cartilage) [CSE 75 kDa] | 21.9 | 
3 | N=C(N)NN [Aminoguanidine, aminoguanidine] |  | Inhibition rate of AGE production (AGE production): 52.7%
4 | Chondroitin sulfate C, sodium salt (shark cartilage), SG [CSC 30 kDa] | 5.0 | effect of protecting the peritoneum (action of inhibiting a decrease in water removal rate) [2]: statistically significant effect was not observed
5 | Chondroitin, sodium salt [Ch 5 kDa] | 13.6 | 
6 | CN[C@@H]1C[C@H]2O[C@@](C)([C@@H]1OC)n1c3ccccc3c3c4c(c5c6ccccc6n2c5c31)C(=O)NC4 [Staurosporine, staurosporine, reference compound] |  | ROS scavenging rate ([1]; Table 4, positive control substance 20 nM): 97.4%; ROS scavenging rate ([1]; Table 5, positive control substance 20 nM): 98.1%
